Tests used:
GSK3b protein = experiment: GSK3b activation (pSer9/pTyr216 ratio) in primary hippocampal neurons isolated from Ts2Cje mice; assay type: cell-based, mouse; settings: 1, 5, 10 μM for 24 hours
Description: For Western blots, 20 μg of proteins from the hippocampus of mice belonging to the four experimental groups were separated by 4-15% SDS-PAGE CriterionTM […] (Bio-rad, Hercules, CAUSE). […] Therefore, the gel, once the image has been acquired, represents the total of the loaded proteins (Total Load), which will then be used to normalize the specific proteins to be examined. After electrophoresis and gel imaging, proteins are transferred via the semi-dry TransBlot Turbo apparatus (Bio-Rad Laboratories) onto nitrocellulose membranes (Bio-Rad, Hercules, CA, USA). Nitrocellulose membranes are blocked with 3% bovine serum albumin (BSA) in a solution of Tween 20-TBS and incubated overnight at 4° C. using specific primary antibodies: p([…])-GSK3B (1:1000, Santa Cruz, #sc-135653), p(S9)-GSK3β (1:1000, Cell Signaling, #5558S), GSK3β (1:1000 Abcam, #93926) and DYRK1A (1:1000, Cell Signaling, #8765S), MAPK44/42 (1:1000, Cell Signaling, #9102), p[…])-MAPK44/42 (1 1000, Cell Signaling, #9101), Akt (1:2000, Bio-Rad, # vma00253K), p(S473) Akt (1:1000, Cell Signaling, #4060S). After three washes with a T-TBS buffer solution, membranes were incubated for 1 hour at room temperature with the secondary antibodies. Secondary antibodies with peroxidase activity are anti-mouse or anti-rabbit (1:5000, Bio-rad, Hercules, CA, USA). […] Finally, the results obtained were analyzed using the ImageLab program (Bio-rad, Hercules, CA, USA). […] In order to isolate primary hippocampal neurons, hippocampi from Ts and euploid mice were mechanically dissociated in PBS (with Ca^2+ and […]) and centrifuged (3 minutes, 1100 rpm, 25° C.). Subsequently, the pellet was resuspended in 0.25% trypsin solution and centrifuged further for 3 minutes at 1100 rpm at Tamb. At this point, the cell extract was resuspended in MEM 1 culture medium (Minimum Essential Medium complemented with fetal bovine serum (FBS-1%), L-glutamine 200 mM (1%), glucose 25 mM (1%), gentamicin 0.1 mg/ml) and centrifuged for 10 minutes, 1100 rpm at 25° C. […]

DYRK1A protein = DYRK1A protein levels in primary hippocampal neurons isolated from Ts2Cje mice; assay type: cell-based, mouse; settings: 1, 5, 10 μM for 24 hours, vs untreated Ts2Cje
Description: For Western blots, 20 μg of proteins from the hippocampus of mice belonging to the four experimental groups were separated by 4-15% SDS-PAGE Criterion™ TGX (Tris-Glyicine eXtended) Stain-Free™ (Bio-rad, Hercules, CAUSE). This type of gel allows a rapid acquisition of the protein run in the ultraviolet (UV) by Chemidoc™ MP imaging systems (Bio-rad, Hercules, CA, USA). Therefore, the gel, once the image has been acquired, represents the total of the loaded proteins (Total Load), which will then be used to normalize the specific proteins to be examined. After electrophoresis and gel imaging, proteins are transferred via the semi-dry TransBlot Turbo apparatus (Bio-Rad Laboratories) onto nitrocellulose membranes (Bio-Rad, Hercules, CA, USA). Nitrocellulose membranes are blocked with 3% bovine serum albumin (BSA) in a solution of Tween 20-TBS and incubated overnight at 4° C. using specific primary antibodies: p(T216)-GSK3B (1:1000, Santa Cruz, #sc-135653), p(S9)-GSK3β (1:1000, Cell Signaling, #5558S), GSK3β (1:1000 Abcam, #93926) and DYRK1A (1:1000, Cell Signaling, #8765S), MAPK44/42 (1:1000, Cell Signaling, #9102), p(Thr202/Tyr204)-MAPK44/42 (1 1000, Cell Signaling, #9101), Akt (1:2000, Bio-Rad, # vma00253K), p(S473) Akt (1:1000, Cell Signaling, #4060S). After three washes with a T-TBS buffer solution, membranes were incubated for 1 hour at room temperature with the secondary antibodies. Secondary antibodies with peroxidase activity are anti-mouse or anti-rabbit (1:5000, Bio-rad, Hercules, CA, USA). Membranes were developed using Clarity Enhanced Chemiluminescence (ECL), a chemiluminescent substrate (Bio-rad, Hercules, CA, USA) and acquired with Chemidoc Mp (Bio-rad, Hercules, CA, USA). Finally, the results obtained were analyzed using the ImageLab program (Bio-rad, Hercules, CA, USA).
In order to isolate primary hippocampal neurons, hippocampi from Ts and euploid mice were mechanically dissociated in PBS (with Ca^2+ and Mg^2−) and centrifuged (3 minutes, 1100 rpm, 25° C.). […]

Compound | activity of the GSK3B protein in Ts2Cje neurons (GSK3b protein) | levels of the DYRK1A protein in Ts2Cje neurons (DYRK1A protein)
Cn1c(=O)cc(N2CCC[C@@H](N)C2)n(Cc2ccccc2C#N)c1=O [alogliptin] | significant increase | significant reduction
N#C[C@@H]1CCCN1C(=O)CNC12CC3CC(CC(O)(C3)C1)C2 [vildagliptin] | significant increase | significant reduction

— patent US12636284B2, “Compositions for use in the prevention and/or treatment of intellectual disability and neurodegenerative diseases in a subject with down syndrome” (UNIVERSITA' DEGLI STUDI DI ROMA “LA SAPIENZA”, priority 2021, dated 2026)
